# Patent US20260248787A9, “MEDICAMENT FOR TREATING CANCER COMPRISING OPTICALLY ACTIVE AZABICYCLO RING DERIVATIVE” (Sumitomo Pharma Co., Ltd., priority 2023, published 2026)
# Experiments:
# MOLM-13 cells [1] = test: Tumor-bearing mice transplanted with MOLM-13 cells, with cytarabine and daunorubicin, T/C (Example 11); type: in vivo; details: MOLM-13 tumor-bearing mice, oral, 17 days
# Protocol: Cytarabine (Cylocide Injection 200 mg/10 mL, Nippon Shinyaku Co., Ltd.) was diluted with saline (Otsuka Saline Injection, Otsuka Pharmaceutical Factory Co., Ltd.) to 8 mg/mL. Daunorubicin (Daunomycin for injection 20 mg, Meiji, Seika Pharma Co., Ltd.) was dissolved in saline (Otsuka Saline Injection, Otsuka Pharmaceutical Factory Co., Ltd.) to 0.2 mg/mL.
# MOLM-13 cells (DSMZ) were intradermally implanted around the ventral region of 8-week old NOD. CB17-PrkdcSCID/J mice (female, The Jackson Laboratory Japan) at 1×10^6 cells/mouse. […] Cytarabine was intraperitoneally administered to the mice at a dose of 80 mg/kg once a day for 5 days. Daunorubicin was intravenously administered to the mice at a dose of 1 mg/kg once a day for 3 days. The tumor volume was measured over time from the start of the administration, and the reduction effect of the tumor volume due to the compound-administration was evaluated. The tumor volume was calculated by the following formula using short axis and long axis of the tumor measured with an electronic caliper (Mitutoyo).
# (§1) The control administration group in which only the solvent was administered and the test substance administration group were compared, and T/C was calculated using the following formula to evaluate the antitumor effect.
# MOLM-13 cells [2] = test: Tumor-bearing mice transplanted with MOLM-13 cells, with venetoclax and azacitidine, T/C (Example 10); type: in vivo; details: MOLM-13 tumor-bearing mice, oral, 15 days
# Protocol: The present compound was weighed and dissolved in 0.5 w/v % Methyl Cellulose 400 solution to give the compound concentrations of 20 mg/mL and 10 mg/mL. Venetoclax was weighed and suspended in a mixed solution of Phosal 50 propylene glycol (60%)/Polyethylene glycol-400 (30%)/Ethanol (10%) to give the compound concentration of 5 mg/mL. Azacitidine was weighed and dissolved in saline to give the compound concentration of 0.3 mg/mL.
# MOLM-13 cells (DSMZ) were intradermally implanted around the ventral region of 5-week old NOD. CB17-PrkdcSCID/J mice (female, The Jackson Laboratory Japan) at 1×10^6 cells/mouse. […] The tumor volume was measured over time from the start of the administration, and the reduction effect of the tumor volume due to the compound-administration was evaluated. The tumor volume was calculated by the following formula using short axis and long axis of the tumor measured with an electronic caliper (Mitutoyo).
# as §1
# MOLM-13 cells [3] = test: Tumor-bearing mice transplanted with MOLM-13 cells, with gilteritinib, T/C (Example 12); type: in vivo; details: MOLM-13 tumor-bearing mice, oral, 18 days
# Protocol: The antitumor effects of the present compound and gilteritinib were evaluated. The present compound was weighed and dissolved in 0.5 w/v % Methyl Cellulose 400 solution to give the compound concentrations of 20 mg/mL and 10 mg/mL. Gilteritinib was weighed and suspended in 0.5 w/v % Methyl Cellulose 400 solution to give the compound concentrations of 3 mg/mL.
# MOLM-13 cells (DSMZ) were intradermally implanted around the ventral region of 5-week old NOD. CB17-PrkdcSCID/J mice (female, The Jackson Laboratory Japan) at 1×10^6 cells/mouse. After confirming the engraftment of MOLM-13 cells 6 days after the transplantation, the present compound was orally administered to the mice at a dose of 100 mg/kg or 200 mg/kg, and gilteritinib was orally administered to the mice at a dose of 30 mg/kg, once a day for 18 days. The tumor volume was measured over time from the start of the administration, and the reduction effect of the tumor volume due to the compound-administration was evaluated. The tumor volume was calculated by the following formula using short axis and long axis of the tumor measured with an electronic caliper (Mitutoyo).
# as §1
# [4] = tested on: acute leukemia with MLLr or NPM1m; test: Phase 1/2 clinical study, clinical activity (responses by ELN 2017); type: in vivo, human
# [5] = tested on: acute leukemia with MLLr or NPM1m; test: as above; type: in vivo, human; remark: listed apart in the source
# Protocol: In the present test, signs of clinical activity have been observed, including decreases and normalization of bone marrow blasts, elimination of blasts in peripheral blood, and responses according to European LeukemiaNet 2017 Response Criteria. A patient with MLLr assigned to 120 mg BID in Arm A achieved MLFS (morphologic leukemia-free state), while a patient with MLLr assigned to 60 mg BID with azoles in Arm B achieved CRh (complete remission with partial hematological recovery) and CRi (complete remission with incomplete hematologic recovery). Substantial changes in several biomarkers have also been observed, including decreases in HOXA9, PBX3, and MEIS1, and increases in CD11b. These changes have been particularly notable in patients with MLLr or NPM1m.
# (1) Of 43 patients enrolled, 17 patients had MLLr and 9 patients had NPM1m, with 19 evaluable at the time of data extraction and 5 responders per ELN 2017 (FIG. 7A). At 200 mg BID in Arm B, 4 evaluable patients had MLLr or NPM1m (n=1 and 3, respectively) and 1 patient achieved CRh/CRi, 1 patient achieved CRi, and 1 patient achieved MLFS. Two additional patients with MLLr also achieved response per ELN2017 at lower dose levels (CRh/CRi and MLFS).
# [6] = MLLr + NPM1m, ≥140 mg BID, n=21
# [7] = 200 mg BID Arm B, 4 evaluable patients with MLLr or NPM1m
smiles,measurement,setting,value
"C=C1C[C@@H]2CC[C@H]1[C@@H](C(=O)N1CCC3(CC1)CN(c1ncncc1Oc1ccc(F)cc1C(=O)N(C(C)C)C(C)C)C3)N2 [the present compound, 5-fluoro-2-[(4-{7-[(1S,3S,4R)-5-methylidene-2-azabicyclo[2.2.2]octane-3-carbonyl]-2,7-diazaspiro[3.5]nonan-2-yl}pyrimidin-5-yl)oxy]-N,N-di(propan-2-yl)benzamide]",T/C,MOLM-13 cells [1]; 100 mg/kg,29.8%
same,T/C,MOLM-13 cells [1]; 200 mg/kg,0.3%
same,T/C,MOLM-13 cells [2]; 100 mg/kg,22.6%
same,T/C,MOLM-13 cells [2]; 200 mg/kg,8.4%
same,T/C,MOLM-13 cells [3]; 100 mg/kg,43.8%
same,T/C,MOLM-13 cells [3]; 200 mg/kg,1.8%
same,responders per ELN 2017,"[4]; 43 enrolled, MLLr or NPM1m, 19 evaluable",5 responders
same,objective response rate (ORR) by ELN 2017 (CR+CRi+MLFS),"[4]; MLLr (20 AML, 2 ALL), ≥140 mg BID, no prior menin inhibitor (13/22)",59.1%
same,CR + CRh (ELN 2017),[4]; [6],5 (24%) n (%)
same,Composite CR (ELN 2017),[4]; [6],7 (33%) n (%)
same,Objective Response Rate (ELN 2017),[4]; [6],12 (57%) n (%)
same,CR+CRh,"[4]; MLLr or NPM1m, all dose levels 40-300 mg BID, prior menin inhibitor naïve, finished 1 cycle (6/38)",16%
same,ORR,"[4]; MLLr or NPM1m, all dose levels 40-300 mg BID, prior menin inhibitor naïve, finished 1 cycle (12/38)",32%
same,CR+CRh rate,"[4]; MLLr or NPM1m, ≥140 mg BID, prior menin inhibitor naïve, finished 1 cycle (5/22)",23%
same,ORR (CR+CRi+MLFS),"[4]; MLLr or NPM1m, ≥140 mg BID, prior menin inhibitor naïve, finished 1 cycle (10/22)",45%
same,CR+CRh,"[4]; MLLr, ≥140 mg BID (2/12 patients)",17%
same,Objective Response Rate (ORR; CR+CRh+CRi+MLFS),"[4]; MLLr, ≥140 mg BID (8/12 patients)",67%
same,CR + CRh (ELN 2017),"[4]; MLLr, ≥140 mg BID, n=12",2 (17%) n (%)
same,Composite CR (ELN 2017),"[4]; MLLr, ≥140 mg BID, n=12",5 (42%) n (%)
same,Objective Response Rate (ELN 2017),"[4]; MLLr, ≥140 mg BID, n=12",8 (67%) n (%)
same,CR+CRh,"[4]; MLLr, ≥140 mg BID, no prior menin inhibitor (5/22)",22.7%
same,CR+CRh,"[4]; NPM1m AML, ≥140 mg BID, no prior menin inhibitor (3/13)",23.1%
same,ORR,"[4]; NPM1m AML, ≥140 mg BID, no prior menin inhibitor (7/13)",53.8%
same,CR+CRh,"[4]; NPM1m, ≥140 mg BID (3/9 patients)",33%
same,ORR,"[4]; NPM1m, ≥140 mg BID (4/9 patients)",44%
same,CR + CRh (ELN 2017),"[4]; NPM1m, ≥140 mg BID, n=9",3 (33%) n (%)
same,Composite CR (ELN 2017),"[4]; NPM1m, ≥140 mg BID, n=9",3 (33%) n (%)
same,Objective Response Rate (ELN 2017),"[4]; NPM1m, ≥140 mg BID, n=9",4 (44%) n (%)
same,response achieved (ELN 2017),"[4]; a patient with MLLr, 120 mg BID Arm A",MLFS
same,additional patients with MLLr with response per ELN2017 (CRh/CRi and MLFS),[4]; lower dose levels,Two
same,median time to CR+CRh,"[4]; overall, ≥140 mg BID",1.0 months
same,median time to objective response,"[4]; overall, ≥140 mg BID",1.0 months
same,Bone marrow blast reduction,[4]; patients with MLLr or NPM1m (FIG. 8),observed
same,patients who achieved CRh/CRi,[5]; [7],1 patient
same,patients who achieved CRi,[5]; [7],1 patient
same,patients who achieved MLFS,[5]; [7],1 patient
same,response achieved (ELN 2017),"[5]; a patient with MLLr, 60 mg BID with azoles Arm B",CRh and CRi
